This passage reports CC50 and EC50 results from US20220267313A1, “DIHYDROPYRIMIDINE DERIVATIVES AND USES THEREOF IN THE TREATMENT OF HBV INFECTION OR OF HBV-INDUCED DISEASES” (Janssen Sciences Ireland Unlimited Company, priority 2019, published 2022).

Data set [1] is described as follows: Cytotoxicity determination by CCK-8 assay, HepG2.2.15 cells. The class given is cell-based. The settings on record: human, 6 days treatment. The method, then: (§1) HepG2.2.15 (the HepG2.2.15 cell line can be produced by transfection of the HepG2 cell line as described in Sells, Chen, and Acs 1987 (Proc. Natl. Acad. Sci. USA 84: 1005-1009), and the HepG2 cell line is available from ATCC® under number HB-8065™)
(§2) HepG2.2.15 cells were plated into 96-well plate in 2% FBS culture medium at the density of 40,000 cells/well and 5,000 cells/well for HBV inhibitory activity and cytotoxicity determination, respectively. After incubation at 37° C., 5% CO2 overnight, cells were treated with medium containing compounds for 6 days with medium and compounds refreshed after 3 days of treatment. Each compound was tested in a 1:3 serial dilutions at 8 different concentrations in triplicate. The highest concentration of the compounds was 10 uM or 1 uM for anti-HBV activity assay and 100 uM for cytotoxicity determination.
Cell viability was determined by CCK-8 assay. After 6 days of compounds treatment, 20 μl CCK-8 reagents were added to each well of cytotoxicity assay plates. Cell plates were incubated at 37° C., 5% CO2 for 2.5 h. The absorbance at 450 nm wavelength and the absorbance at 630 nm wavelength as reference was measured.
(§3) EC50 and CC50 values are calculated by the GRAPHPAD PRISM software.

A further data set relates to HBV. Briefly: Anti-HBV activity: HBV DNA in culture medium by qPCR, HepG2.2.15 cells. The format is cell-based. As to conditions: Hepatitis B virus, 144 h, 6 days treatment. The protocol: as §1, §2
The change of HBV DNA level induced by the compounds was assessed by quantitative real-time polymerase chain reaction (qPCR). Briefly, the HBV DNA in the culture medium was extracted using QIAamp 96 DNA Blood Kit according to the manual and then quantified by real-time PCR assay using the primers and probe in the table 1 below.
as §3
(In general: Real-time PCR tracks product formation cycle by cycle.)

Structures are written as SMILES.

Turning to `COC(=O)C1=C(C23C4C5C2C2C3C4C52C(=O)O)NC(c2nccn2C)=NC1c1ccc(F)c(F)c1Cl` (single isomer, unassigned) [Ia-2, (R*)-4-(6-(2-chloro-3,4-difluorophenyl)-5-(methoxycarbonyl)-2-(1-methyl-1H-imidazol-2-yl)-3,6-dihydropyrimidin-4-yl)cubane-1-carboxylic Acid], the CC50 at 6 days in data set [1] was 295 nM. In the data set on HBV, this compound had an EC50 of more than 100000 nM.
The matching figures for `COC(=O)C1=C(C23C4C5C2C2C3C4C52C(=O)O)NC(c2nccs2)=N[C@@H]1c1ccc(F)c(F)c1C` (single isomer, unassigned) [Ia-3]: 45 nM and more than 50000 nM.
On to `CCOC(=O)C1=C(C23C4C5C2C2C3C4C52C(=O)O)NC(c2nccn2C)=NC1c1ccc(F)c(F)c1Cl` (single isomer, unassigned) [Ia-4, (R*)-4-(6-(2-chloro-3,4-difluorophenyl)-5-(ethoxycarbonyl)-2-(1-methyl-1H-imidazol-2-yl)-3,6-dihydropyrimidin-4-yl)cubane-1-carboxylic Acid], for which, in data set [1], the half-maximal cytotoxic concentration (CC50) at 6 days came to 55 nM. In addition, the EC50 with HBV was more than 50000 nM.
Consider `CCOC(=O)C1=C(C23C4C5C2C2C3C4C52C(=O)O)NC(c2nccs2)=NC1c1ccc(F)cc1C` (single isomer, unassigned) [Ia-5, (R*)-4-(5-(ethoxycarbonyl)-6-(4-fluoro-2-methylphenyl)-2-(thiazol-2-yl)-3,6-dihydropyrimidin-4-yl)cubane-1-carboxylic Acid], for which the CC50 at 6 days in data set [1] is 43 nM. The same compound gave an EC50 in the data set on HBV of more than 50000 nM.
The matching figures for `CCOC(=O)C1=C(C23C4C5C2C2C3C4C52C(=O)O)NC(c2nccs2)=N[C@H]1c1ccc(F)cc1Br` (single isomer, unassigned) [Ia-6, (R*)-4-(6-(2-bromo-4-fluorophenyl)-5-(ethoxycarbonyl)-2-(thiazol-2-yl)-3,6-dihydropyrimidin-4-yl)cubane-1-carboxylic Acid]: 11.5 nM and more than 12500 nM.
`COC(=O)C1=C(C23C4C5C2C2C3C4C52CC(=O)O)NC(c2nccs2)=N[C@@H]1c1ccc(F)cc1Cl` (single isomer, unassigned) [Ib-1, 2-((1S,2R,3R,8S)-4-((S*)-6-(2-chloro-4-fluorophenyl)-5-(methoxycarbonyl)-2-(thiazol-2-yl)-3,6-dihydropyrimidin-4-yl)cuban-1-yl)acetic Acid]: in data set [1], half-maximal cytotoxicity (CC50 at 6 days) was put at 360 nM. This compound yielded an EC50 with HBV of 42000 nM.
The corresponding values for `COC(=O)C1=C(C23C4C5C2C2C3C4C52c2nc(C(=O)O)co2)NC(c2nccs2)=N[C@@H]1c1ccc(F)cc1Cl` (single isomer, unassigned) [Ib-2, 2-((1R,2R,3R,8S)-4-((S*)-6-(2-chloro-4-fluoro-phenyl)-5-(methoxycarbonyl)-2-(thiazol-2-yl)-3,6-dihydropyrimidin-4-yl)cuban-1-yl)oxazole-4-carboxylic Acid] are 110 nM and 24000 nM.
The corresponding values for `COC(=O)C1=C(C23C4C5C2C2C3C4C52C(=O)O)NC(c2nccs2)=N[C@@H]1c1ccc(F)cc1Cl` (single isomer, unassigned) [Ib-3, (1R,2R,3R,8S)-4-((S*)-6-(2-chloro-4-fluorophenyl)-5-(methoxycarbonyl)-2-(thiazol-2-yl)-3,6-dihydropyrimidin-4-yl)cubane-1-carboxylic Acid] are 84 nM and 70000 nM.
The matching figures for `COC(=O)C1=C(C23C4C5C2C2C3C4C52C(=O)O)NC(c2nccs2)=N[C@@H]1c1ccc(F)c(F)c1Cl` (single isomer, unassigned) [Ib-4, (1R,2R,3R,8S)-4-((S*)-6-(2-chloro-3,4-difluorophenyl)-5-(methoxycarbonyl)-2-(thiazol-2-yl)-3,6-dihydropyrimidin-4-yl)cubane-1-carboxylic Acid]: 22 nM and 51000 nM.
The compound `CCOC(=O)C1=C(C23C4C5C2C2C3C4C52C(=O)O)NC(c2nccs2)=N[C@H]1c1cccc(F)c1C` (single isomer, unassigned) [Ib-5, (1R,2R,3R,8S)-4-((S*)-5-(ethoxycarbonyl)-6-(3-fluoro-2-methylphenyl)-2-(thiazol-2-yl)-3,6-dihydropyrimidin-4-yl)cubane-1-carboxylic Acid] yielded a CC50 at 6 days in data set [1] of 17 nM. In the data set on HBV, this compound came in with an EC50 of 49000 nM.
The matching figures for `COC(=O)C1=C(C23C4C5C2C2C3C4C52C(=O)O)NC(c2nccs2)=N[C@@H]1c1cccc(F)c1Cl` (single isomer, unassigned) [Ib-8, (1S,2R,3S,8S)-4-((S*)-6-(2-chloro-3-fluorophenyl)-5-(methoxycarbonyl)-2-(thiazol-2-yl)-3,6-dihydropyrimidin-4-yl)cubane-1-carboxylic Acid]: 132 nM and more than 50000 nM.
The corresponding values for `CCCOC(=O)C1=C(C23C4C5C2C2C3C4C52C(=O)O)NC(c2nccs2)=NC1c1ccc(F)c(F)c1Cl` (single isomer, unassigned) [Ib-11, (S*)-4-(6-(2-chloro-3,4-difluorophenyl)-5-(propoxycarbonyl)-2-(thiazol-2-yl)-3,6-dihydropyrimidin-4-yl)cubane-1-carboxylic Acid] are 52 nM and 22000 nM.
On to `CC(C)OC(=O)C1=C(C23C4C5C2C2C3C4C52C(=O)O)NC(c2nccs2)=NC1c1ccc(F)c(F)c1Cl` (single isomer, unassigned) [Ib-12, (S*)-6-(6-Carboxy-cuban-3-yl)-4-(2-chloro-3,4-difluoro-phenyl)-2-thiazol-2-yl-1,4-dihydro-pyrimidine-5-carboxylic Acid Isopropyl Ester], for which the CC50 at 6 days in data set [1] came out at 37 nM. This compound returned an EC50 with HBV of 28000 nM.
On to `CCOC(=O)C1=C(C23C4C5C2C2C3C4C52C(=O)O)NC(c2ncc(F)cc2F)=NC1c1cccc(F)c1C` (single isomer, unassigned) [Ib-18, (S*)-4-(2-(3,5-difluoropyridin-2-yl)-5-(ethoxycarbonyl)-6-(3-fluoro-2-methylphenyl)-3,6-dihydropyrimidin-4-yl)cubane-1-carboxylic Acid], for which, in data set [1], the CC50 at 6 days amounted to 61 nM. Besides, in the data set with HBV, the EC50 was more than 12500 nM.
The corresponding values for `CCOC(=O)C1=C(C23C4C5C2C2C3C4C52C(=O)O)NC(c2nccs2)=N[C@@H]1c1cccc(F)c1Br` (single isomer, unassigned) [Ib-19, (1S,2R,3S,8S)-4-((S*)-6-(2-bromo-3-fluorophenyl)-5-(ethoxycarbonyl)-2-(thiazol-2-yl)-3,6-dihydropyrimidin-4-yl)cubane-1-carboxylic Acid] are 12.5 nM and more than 25000 nM.
The corresponding values for `CCOC(=O)C1=C(C23C4C5C2C2C3C4C52C(=O)O)NC(c2nccs2)=NC1c1ccc(F)c(F)c1F` (single isomer, unassigned) [Ib-20, (S*)-4-(5-(ethoxycarbonyl)-2-(thiazol-2-yl)-6-(2,3,4-trifluorophenyl)-3,6-dihydropyrimidin-4-yl)cubane-1-carboxylic Acid] are 28 nM and 46000 nM.
Consider `COC(=O)C1=C(C23C4C5C2C2C3C4C52C(=O)O)NC(c2nccs2)=NC1c1ccc(F)cc1C` (single isomer, unassigned) [Ib-21, (S*)-4-(6-(4-fluoro-2-methylphenyl)-5-(methoxycarbonyl)-2-(thiazol-2-yl)-3,6-dihydropyrimidin-4-yl)cubane-1-carboxylic Acid], for which the CC50 at 6 days in data set [1] is 250 nM. In addition, in the data set on HBV, the EC50 is more than 50000 nM.
The corresponding values for `CCOC(=O)C1=C(C23C4C5C2C2C3C4C52C(=O)O)NC(c2nccs2)=NC1c1ccc(Cl)c(F)c1` (single isomer, unassigned) [Ib-23, (S*)-4-(6-(4-chloro-3-fluorophenyl)-5-(ethoxycarbonyl)-2-(thiazol-2-yl)-3,6-dihydropyrimidin-4-yl)cubane-1-carboxylic Acid] are 13 nM and more than 6250 nM.
The corresponding values for `COC(=O)C1=C(C23C4C5C2C2C3C4C52C(=O)O)NC(c2ncc(F)cc2F)=NC1c1cccc(F)c1C` (single isomer, unassigned) [Ib-26, (S*)-4-(2-(3,5-difluoropyridin-2-yl)-5-(methoxycarbonyl)-6-(3-fluoro-2-methylphenyl)-3,6-dihydropyrimidin-4-yl)cubane-1-carboxylic Acid] are 160 nM and more than 12500 nM.
In turn, `CCOC(=O)C1=C(C23C4C5C2C2C3C4C52CC(C)(C)C(=O)O)NC(c2nccs2)=N[C@@H]1c1ccc(F)c(F)c1Cl` (single isomer, unassigned) [Ib-28, (S*)-3-(4-(6-(2-chloro-3,4-difluorophenyl)-5-(ethoxycarbonyl)-2-(thiazol-2-yl)-3,6-dihydropyrimidin-4-yl)cuban-1-yl)-2,2-dimethylpropanoic Acid] had a CC50 at 6 days in data set [1] of 26.5 nM. In the data set on HBV, this compound registered an EC50 of 16000 nM.
The corresponding values for `COC(=O)C1=C(C23C4C5C2C2C3C4C52C(=O)O)NC(c2nccs2)=N[C@@H]1c1cccc(F)c1C` (stereo in doubt) [Ia-1, (2R,3R,5R,6R,7R,8R)-4-((R*)-6-(3-fluoro-2-methylphenyl)-5-(methoxycarbonyl)-2-(thiazol-2-yl)-3,6-dihydropyrimidin-4-yl)cubane-1-carboxylic Acid] are 204 nM and more than 50000 nM.

As usually defined, the CC50 is the concentration giving 50% cytotoxicity. Read a high CC50 as better tolerance by the cells. As usually defined, the EC50 is the concentration at which the effect is half-maximal. Higher therefore signals a need for much substance.
